According to patent publication US5770382A, “Tricyclic retinoids, methods for their production and use” (Ligand Pharmaceuticals, Inc., priority 1995, dated 1998):
Entries after “also recorded” stand apart in the source; their conditions may differ.

Key:
[1] = system: RAR and RXR receptors; assay: Co-transfection assay, summary for RARs and RXRs; format: cell-based; conditions: for potency profile in comparison to 9-cis retinoic acid (in words): versus 9-cis
Experimental: (§1) Utilizing the "cis-trans" or "co-transfection" assay described by Evans et al., Science, 240:889-95 (May 13, 1988), the disclosure of which is herein incorporated by reference, the retinoid compounds of the present invention were tested and found to have strong, specific activity as either selective RAR agonists, selective RXR agonists, or as pan-agonist activators of both RAR and RXR receptors. This assay is described in further detail in U.S. Pat. Nos. 4,981,784 and 5,071,773, the disclosures of which are incorporated herein by reference.
(§2) The co-transfection assay provides a method for identifying functional agonists which mimic, or antagonists which inhibit, the effect of native hormones, and quantifying their activity for responsive IR proteins. In this regard, the co-transfection assay mimics an in vivo system in the laboratory. Importantly, activity in the co-transfection assay correlates very well with known in vivo activity, such that the co-transfection assay functions as a qualitative and quantitative predictor of a tested compounds Ln vivo pharmacology. See, e.g., T. Berger et al. 41 J. Steroid Biochem. Molec. Biol. 733 (1992), the disclosure of which is herein incorporated by reference.
(§3) In the co-transfection assay, a cloned cDNA for an IR (e.g., human RARα, RARβ, RXRγ) under the control of a constitutive promoter (e.g., the SV 40 promoter) is introduced by transfection (a procedure to induce cells to take up foreign genes) into a background cell substantially devoid of endogenous IRs. This introduced gene directs the recipient cells to make the IR protein of interest. A second gene is also introduced (co-transfected) into the same cells in conjunction with the IR gene. This second gene, comprising the cDNA for a reporter protein, such as firefly luciferase (LUC), controlled by an appropriate hormone responsive promoter containing a hormone response element (HRE). This reporter plasmid functions as a reporter for the transcription-modulating activity of the target IR. Thus, the reporter acts as a surrogate for the products (mRNA then protein) normally expressed by a gene under control of the target receptor and its native hormone.
(§4) The co-transfection assay can detect small molecule agonists or antagonists of target IRs. Exposing the transfected cells to an agonist ligand compound increases reporter activity in the transfected cells. This activity can be conveniently measured, e.g., by increasing luciferase production, which reflects compound-dependent, IR-mediated increases in reporter transcription. […] . Increasing concentrations of a suspected antagonist will decrease the reporter signal (e.g., luciferase production). The co-transfection assay is therefore useful to detect both agonists and antagonists of specific IRs. Furthermore, it determines not only whether a compound interacts with a particular IR, but whether this interaction mimics (agonizes) or blocks (antagonizes) the effects of the native regulatory molecules on target gene expression, as well as the specificity and strength of this interaction.
To determine RAR and/or RXR agonist activity of the compounds of the present invention, the CV-1 cells were transiently transfected by calcium phosphate coprecipitation according to the procedure of Berger et al., 41 J.Steroid Biochem. Mol. Biol., 733 (1992) with the following receptor expressing plasmids: pRShRARα: Giguere et al., 330 Nature, 624 (1987); pRShRARβ and pRShRARγ, Ishikawa et al., 4 Mol. Endocrin., 837 (1990); pRShRXRα, Mangelsdorf et al., 345 Nature, 224 (1990); and pRSmRXRβ and pRSmRXRγ, Mangelsdorf et al., 6 Genes & Devel., 329 (1992), the disclosures of which are herein incorporated by reference.

[2] = system: RARs; assay: Co-transfection assay, summary for the RARs; format: cell-based, human
Experimental: as §1, §2, §3
as §4, with “Furthermore, it determines not only whether a compound interacts with a particular IR, but whether this interaction mimics (agonizes) or blocks (antagonizes) the effects of the native regulatory molecules on target gene expression, as well as the specificity and strength of this interaction.” left out

[3] = target: T1, RXRα (Homo sapiens, UniProt P19793); assay: Co-transfection assay, RXRα agonist activity; format: cell-based; conditions: CV-1 cells, 40 hours; read-out: RXRα Pot (potency, EC50)
T1 construct: expressed in transfected cells; host or cells: CV-1 (African green monkey kidney fibroblasts)
T1 sequence (P19793 1-462): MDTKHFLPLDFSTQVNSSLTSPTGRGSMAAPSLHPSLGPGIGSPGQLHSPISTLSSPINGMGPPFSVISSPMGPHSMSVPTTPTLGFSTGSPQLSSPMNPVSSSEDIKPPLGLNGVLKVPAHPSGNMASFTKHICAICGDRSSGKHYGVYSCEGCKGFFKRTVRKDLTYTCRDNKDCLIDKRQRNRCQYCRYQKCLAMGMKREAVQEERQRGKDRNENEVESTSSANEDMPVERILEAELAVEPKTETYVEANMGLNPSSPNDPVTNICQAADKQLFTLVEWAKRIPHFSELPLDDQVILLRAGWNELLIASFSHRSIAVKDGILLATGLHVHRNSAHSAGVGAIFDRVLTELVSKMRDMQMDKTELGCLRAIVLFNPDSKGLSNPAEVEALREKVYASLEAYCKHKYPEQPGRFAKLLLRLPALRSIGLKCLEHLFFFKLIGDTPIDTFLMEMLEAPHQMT

[4] = system: ornithine decarboxylase (ODC); conditions: literature; cited from earlier work

Row | Compound | agonist type on RAR and RXR receptors (in words) [1] | potency profile in comparison to 9-cis retinoic acid (in words) [1] | RAR activity / selectivity (in words) [2] | further results
1 | CCN1CC\C(=C/C=C/C(C)=C/C(=O)O)c2cc3c(cc21)C(C)(C)CCC3(C)C [Compound 147b, (2E,4E)-3-methyl-6-[(E)1-ethyl-6,6,9,9-tetramethyl-2,3,6,7,8,9-hexahydro-1H-benzo[g]quinolin-4-ylidene]hexa-2,4-dienoic acid] | – | – | – | EC50 [3]: > 10 µM
2 | CC(/C=C/C=C1\CCCc2cc3c(cc21)C(C)(C)CCC3(C)C)=C\C(=O)O [Compound 109b, (2E,4E)-3-Methyl-6-[(E)-3,4,5,6,7,8-hexahydro-5,5,8,8-tetramethyl-2H-anthracen-1-ylidene]hexa-2,4-dienoic acid] | – | – | extremely potent RAR active; also recorded: RAR selective | –
3 | CC(/C=C/C=C1\CCOc2cc3c(cc21)C(C)(C)CCC3(C)C)=C\C(=O)O [Compound 119b, (2E,4E)-3-Methyl-6-[(E)-2,3,6,7,8,9-hexahydro-6,6,9,9-tetramethyl-benzo[g]chromen-4-ylidene]hexa-2,4-dienoic acid] | – | – | extremely potent RAR active; also recorded: RAR selective | –
4 | CC1=C(/C=C/C(C)=C/C=C/C(C)=C/C(=O)O)C(C)(C)CCC1 [retinoic acid] | – | – | – | inhibition of TPA induction of ODC (in words) [4]: inhibits this induction of ODC by TPA
5 | CC(/C=C/C=C1/CCCc2cc3c(cc21)C(C)(C)CCC3(C)C)=C\C(=O)O [Compound 101b, (2E,4E)-3-Methyl-6-[(Z)-3,4,5,6,7,8-hexahydro-5,5,8,8-tetramethyl-2H-anthracen-1-ylidene]hexa-2,4-dienoic acid] | pan-agonist | superior potency profiles | extremely potent RAR active | –

Continued, in another order:

Row | agonist type on RAR and RXR receptors (in words) [1] | potency profile in comparison to 9-cis retinoic acid (in words) [1] | Compound | RAR activity / selectivity (in words) [2] | further results
6 | pan-agonist | superior potency profiles | CC(/C=C/CC1CCCc2cc3c(cc21)C(C)(C)CCC3(C)C)=C\C(=O)O (racemic) [Compound 124b, (2E,4E)-3-Methyl-6-(1,2,3,4,5,6,7,8-octahydro-5,5,8,8-tetramethylanthracen-1-yl)hexa-2,4-dienoic acid] | – | –
7 | pan-agonist | superior potency profiles | CC(/C=C/C=C1/CCOc2cc3c(cc21)C(C)(C)CCC3(C)C)=C\C(=O)O [Compound 144b] | extremely potent RAR active | –
